Like-named read-outs stand apart in the source and are kept apart here. One block for each molecule: values may come before it.
What was measured:
[1] = In vivo pharmacokinetic time profile in rats (plasma and brain); conditions: rat; for Cmax / half-life / Kp: male, Sprague Dawley; for Cmax / half-life: plasma; for Cmax: vehicle 10% HP-betaCD; for half-life: read-out: T½ (converted); for Kp: brain, read-out: measured brain/plasma ratio
Method: Male Sprague Dawley rats or male C57 mice from SLAC Laboratory Animal Co. Ltd., Shanghai, China or SIPPR/BK Laboratory Animal Co. Ltd., Shanghai, China were used for pharmacokinetic studies. Animals were group housed during acclimation and individually housed during in-life. The animal room environment was controlled (conditions: temperature 20 to 26° C., relative humidity 30 to 70%, 12 hours artificial light and 12 hours dark) and all animals have access to Certified Rodent Diet (Beijing KEAO XIELI Feed Co., Ltd. Beijing, P.R. China.) ad libitum. Animals were deprived of food overnight prior to dosing and fed approximately 4 hours post-dosing. Water was autoclaved before provided to the animals ad libitum.
For oral dosing, the dose formulation was administered via oral gavage.
Animals were anesthetized via isoflurane. At terminal time point, about 200 μL blood was collected from cardiac puncture or abdominal vein. All blood samples were transferred into microcentrifuge tubes containing 5 μL of K2EDTA (0.5 M) as anti-coagulant and placed on wet ice until processed for plasma by centrifugation (3,000 rpm for 5 minutes at 2 to 8° C.) within half an hour of collection and kept at −70±10° C. until LC/MSMS analysis
After blood collection, brain was harvested and washed twice with cold deionized water, and blotted on filter paper, weighted and frozen until processed. Brain samples were thawed and homogenized with 4-fold of cold water using Covaris (peak power 450.0, Duty Factor 20.0, Cycles/Burst 200). for 3 min, vortex for 10 second every 1 min. Samples were further stored at −79° C. (dilution factor=5) until bioanalysis

[2] = tested on: fast-spiking interneurons (FSI); experiment: Hippocampal brain slice current clamp recording, FSI excitability (AP firing); assay type: cell-based, rat
Method: Male Sprague Dawley rats (18˜24 days old) from Shanghai Laboratory Animal Center (Shanghai, China) were used for brain slice experiments. They were housed in groups of five in controlled conditions (temperature of 23±3° C., humidity of 40-70%, and 12:12 light-dark cycle with lights on at 5:00 am) and free access to food and water. All procedures were conducted in agreement with the guideline of Institutional Animal Care and Use Committee at ChemPartner. Ethical approval was obtained by the The Danish Animal Experimentation Inspectorate (journal no. 2014 15 0201 00339).
Animals were decapitated by a guillotine and their brains quickly removed and placed in ice-cold modified artificial cerebral spinal fluid (ACSF) containing (in mM): 110 sucrose, 60 NaCl, 3 KCl, 5 glucose, 28 NaHCO3, 1.25 NaH2PO4, 0.5 CaCl2 and 7 MgCl2, aerated with 95% O2/5% CO2. The brains were block-trimmed and glued onto the stage of a vibratome (VT1200S, Leica Microsystems Inc., Bannockburn, Ill., USA). Parasagittal hippocampal slices (300 μm) were cut and incubated in the regular carbogenated ACSF containing (in mM): 119 NaCl, 2.5 KCl, 1.2 Na2HPO4, 25 NaHCO3, 2.5 CaCl2, 1.3 MgCl2, 10 glucose at 35° C. for the first 60 min and then transferred to room temperature prior to recordings.
In the hippocampal CA1 pyramidal cell layer, fast-spiking interneurons (FSI) or pyramidal (PYR) cells were visualized using differential interference contrast-infrared (DIC-IR)-assisted microscopy and whole-cell patch clamp recordings performed using an Axon Multiclamp 700B amplifier (Molecular Devices, Union City, Calif.). FSI were selected based on non-pyramidal shape and multipolar dendrites. Putative FSI were only accepted for experiments if they fulfilled the following electrophysiological criteria: short duration action potentials (APs <1 ms), large after hyperpolarizations, and, in response to sustained current injection, high frequency AP firing (>100 Hz) with limited spike frequency adaptation. Patch pipettes (4-5MΩ) were pulled from thick-walled borosilicate glass tubing (O.D.: 1.5 mm, I.D.: 0.75 mm; Sutter Instrument, Novato, Calif., USA).
Whole cell patch clamp recordings in current clamp mode were used to study neuronal excitability. AP firing was recorded in the presence of 50 μM APV, 10 μM DNQX and 10 μM Gabazine to block all synaptic transmission mediated by NMDA, AMPA and GABAA receptors. Patch pipettes were filled with an intracellular solution containing (in mM): 110 KMeSO4, 10 HEPES, 1 EGTA, 2 MgCl2, 4 Na2-ATP, 0.4 TRIS-GTP, 10 Tris2-Phosphocreatine, pH adjusted to 7.3 with KOH. The osmolarity was adjusted to 290 mOsm with sucrose. The holding potential was maintained continuously at −70 mV by manual DC injection. Series resistance (10-20 MΩ after “break-in”) was 90% compensated and monitored constantly during the entire experiment by “bridge”-balancing of the instantaneous voltage responses to a hyperpolarizing current pulse before each depolarizing stimulus delivery. A series of depolarizing current steps (800 ms-long) were applied every 3 min. Following at least 15 min of stable activity, Kv3 channel modulators were applied to the ACSF at increasing concentrations.

[3] = PO administration, dose 3 (mg/mg)
[4] = PO administration, dose 30 (mg/mg)
[5] = SC administration, dose 3 (mg/mg)
[6] = SC administration, dose 10 (mg/mg)
[7] = 3 mg/mg, SC administration, dose 3 (mg/mg [sic])
[8] = 30 mg/mg, SC administration, dose 30 (mg/mg [sic])

- Cmax [1, 3]: 627 ng/mL
- half-life [1, 3]: 120 min
- Cmax [1, 4]: 3940 ng/mL
- half-life [1, 4]: 66 min
- Cmax [1, 5]: 427 ng/mL
- half-life [1, 5]: 48 min
- Cmax [1, 6]: 1370 ng/mL
- half-life [1, 6]: 42 min
- Kp [1]: 0.5
- Estimated unbound brain Cmax ([1]; PO, dose 3 (mg/mg), based on brain/plasma ratio 0.5 and unbound fraction in brain 8%): 65 nM
- Unbound plasma, Cmax ([1]; PO, dose 3 (mg/mg), unbound fraction in plasma 10%): 160 nM
- Estimated unbound brain Cmax ([1]; PO, dose 30 (mg/mg), based on brain/plasma ratio 0.5 and unbound fraction in brain 8%): 406 nM
- Unbound plasma, Cmax ([1]; PO, dose 30 (mg/mg), unbound fraction in plasma 10%): 1015 nM
- Estimated unbound brain Cmax ([1]; SC, dose 3 (mg/mg), based on brain/plasma ratio 0.5 and unbound fraction in brain 8%): 44 nM
- Unbound plasma, Cmax ([1]; SC, dose 3 (mg/mg), unbound fraction in plasma 10%): 110 nM
- Estimated unbound brain Cmax ([1]; SC, dose 10 (mg/mg), based on brain/plasma ratio 0.5 and unbound fraction in brain 8%): 142 nM
- Unbound plasma, Cmax ([1]; SC, dose 10 (mg/mg), unbound fraction in plasma 10%): 353 nM
SMILES: Cc1cnc(CNC(=O)c2ccn(S(=O)(=O)c3ccc(F)cc3C)c2)cn1 [Compound 90, 1-(4-fluoro-2-methylbenzene-1-sulfonyl)-N-[(5-methylpyrazin-2-yl)methyl]-1H-pyrrole-3-carboxamide]
- FSI excitability (number of APs) ([2]; 10 μM): decreased, reaching a level below baseline
- FSI excitability (number of APs) ([2]; 0.3 and 1 μM): increase in FSI excitability
- FSI excitability ([2]; low concentrations (0.1 and 1 μM)): increases FSI excitability

- Cmax [1, 7]: 1100 ng/mL
- half-life [1, 7]: 18 min
- Cmax [1, 8]: 7620 ng/mL
- half-life [1, 8]: 24 min
- Kp ([1]; subcutaneous): 0.25
- Estimated unbound brain Cmax ([1]; SC, dose 3 (mg/mg [sic]), based on brain/plasma ratio 0.25 and unbound fraction in brain 12%): 95 nM
- Unbound plasma, Cmax ([1]; SC, dose 3 (mg/mg [sic]), unbound fraction in plasma 12%): 380 nM
- Estimated unbound brain Cmax ([1]; SC, dose 30 (mg/mg [sic]), based on brain/plasma ratio 0.25 and unbound fraction in brain 12%): 663 nM
- Unbound plasma, Cmax ([1]; SC, dose 30 (mg/mg [sic]), unbound fraction in plasma 12%): 2650 nM
SMILES: Cc1ccc(S(=O)(=O)n2ccc(C(=O)NCc3ncco3)c2)cc1 [Compound 86, 1-(4-methylbenzene-1-sulfonyl)-N-[(1,3-oxazol-2-yl)methyl]-1H-pyrrole-3-carboxamide]
- FSI excitability (number of APs) ([2]; 10 μM): slight reduction in excitability
- FSI excitability (number of APs) ([2]; 0.3 and 1 μM): increased excitability

From patent US20200131156A1, “ARYLSULFONYLPYROLECARBOXAMIDE DERIVATIVES AS Kv3 POTASSIUM CHANNEL ACTIVATORS” (H. Lundbeck A/S, priority 2018, published 2020)
